Measurements reported in PMC8286840, “Identifying SARS-CoV-2 antiviral compounds by screening for small molecule inhibitors of Nsp3 papain-like protease” (Biochemical Journal, 2021).
Counter-ions that a name gives are not always drawn. Like-named read-outs stand apart in the source and are kept apart here. Where a SMILES comes first, the peptide text is derived from it. [ ]: non-standard residue; d: D form. The star is where a group is joined. Sta = CC(C)C[C@H](N)[C@@H](O)CC(=O)O; Isovaleryl = CC(C)CC(=O)*

Tests used:
[1] = target: T1, SARS-CoV-2 PLpro (nsp3 1564–1878) (Severe acute respiratory syndrome coronavirus 2, UniProt P0DTD1); experiment: biochemical; parameters: FRET-quenched peptide (Pro3) cleavage by PLpro, 10 min pre-incubation, slope over 20 min, normalised to no-compound control; conditions: low concentration screen, read-out: % of control remaining
[2] = target: T1, SARS-CoV-2 PLpro (nsp3 1564–1878); experiment: biochemical; parameters: FRET-quenched peptide (Pro3) cleavage by PLpro, 10 min pre-incubation, slope over 20 min, normalised to no-compound control; conditions: high concentration screen, read-out: % of control remaining

CCN(CC)CCN(Cc1ccc(-c2ccc(C(F)(F)F)cc2)cc1)C(=O)Cn1c(SCc2ccc(F)cc2)nc(=O)c2c1CCC2 [Darapladib (SB-480848)]
remaining activity at 1.25 µM ([1]; Well no.=8576): 101%
remaining activity at 3.75 µM ([2]; Well no.=8576): 98.6%

CN1Cc2c(N)cccc2C(c2ccccc2)C1 (stereo not shown) [Nomifensine maleate]
remaining activity at 1.25 µM ([1]; Well no.=1139): 94.1%
remaining activity at 3.75 µM ([2]; Well no.=1139): 96.7%

O=C1N[C@@H](Cc2cnc[nH]2)C(=O)N2CCC[C@@H]12 [Cyclo(his-pro)]
remaining activity at 1.25 µM ([1]; Well no.=6245): 106%
remaining activity at 3.75 µM ([2]; Well no.=6245): 105%

O=c1cc(-c2ccc(O)cc2)oc2c([C@@H]3O[C@H](CO)[C@@H](O)[C@H](O)[C@H]3O)c(O)cc(O)c12 [Vitexin]
remaining activity at 1.25 µM ([1]; Well no.=3396): 95.4%
remaining activity at 3.75 µM ([2]; Well no.=3396): 97.6%

O=c1ncccn1[C@@H]1O[C@H](CO)[C@@H](O)[C@H]1O [Zebularine]
remaining activity at 1.25 µM ([1]; Well no.=7818): 97%
remaining activity at 3.75 µM ([2]; Well no.=7818): 96.3%

CC(C)NNC(=O)c1ccncc1 [Iproniazid]
remaining activity at 1.25 µM ([1]; Well no.=2048): 94.9%
remaining activity at 3.75 µM ([2]; Well no.=2048): 96.1%

CCN1CCN(c2cc3c(cc2F)c(=O)c(C(=O)O)cn3C2CC2)CC1 [Enrofloxacin]
remaining activity at 1.25 µM ([1]; Well no.=2028): 104%
remaining activity at 3.75 µM ([2]; Well no.=2028): 104%

CCNC(=O)[C@H]1O[C@@H](n2cnc3c(N)nc(NCCc4ccc(CCC(=O)O)cc4)nc32)[C@H](O)[C@@H]1O [CGS 21680 (Hydrochloride)]
remaining activity at 1.25 µM ([1]; Well no.=7001): 99.7%
remaining activity at 1.25 µM ([1]; Well no.=8417): 95.9%
remaining activity at 3.75 µM ([2]; Well no.=7001): 95.1%
remaining activity at 3.75 µM ([2]; Well no.=8417): 94.7%

C[C@@H](c1ncncc1F)[C@](O)(Cn1cncn1)c1ccc(F)cc1F [Voriconazole]
remaining activity at 1.25 µM ([1]; Well no.=4857): 101%
remaining activity at 3.75 µM ([2]; Well no.=4857): 103%

CCCCCN(CCCOC)C(=O)C(CCC(=O)O)NC(=O)c1ccc(Cl)c(Cl)c1 (stereo not shown) [Loxiglumide]
remaining activity at 1.25 µM ([1]; Well no.=8483): 94.1%
remaining activity at 3.75 µM ([2]; Well no.=8483): 95%

CN1CCC(CNc2ccc3ncc(-c4cccc(OC(F)(F)F)c4)n3n2)CC1 [SGI-1776 free base]
remaining activity at 1.25 µM ([1]; Well no.=4818): 88.4%
remaining activity at 3.75 µM ([2]; Well no.=4818): 86.2%

NC[C@@H]1O[C@H](O[C@H]2[C@@H](O)[C@H](O[C@@H]3[C@@H](O)[C@H](N)C[C@H](N)[C@H]3O[C@H]3O[C@H](CO)[C@@H](O)[C@H](O)[C@H]3N)O[C@@H]2CO)[C@H](N)[C@@H](O)[C@@H]1O [Paromomycin sulfate]
remaining activity at 1.25 µM ([1]; Well no.=1211): 99.9%
remaining activity at 3.75 µM ([2]; Well no.=1211): 100%

CC1=CC(=O)C2=C(C)C[C@H](O)[C@@H]3[C@H](OC(=O)[C@H]3C)[C@@H]12 [Austricin]
remaining activity at 1.25 µM ([1]; Well no.=3105): 102%
remaining activity at 3.75 µM ([2]; Well no.=3105): 105%

N[C@@H](Cc1ccc(O)c(O)c1)C(=O)O [L-3,4-Dihydroxyphenylalanine]
remaining activity at 1.25 µM ([1]; Well no.=634): 101%
remaining activity at 3.75 µM ([2]; Well no.=634): 105%

CCCCS(=N)(=O)CCC(N)C(=O)O [L-Buthionine-sulfoximine]
remaining activity at 1.25 µM ([1]; Well no.=315): 97.6%
remaining activity at 3.75 µM ([2]; Well no.=315): 97.7%

CC(=O)CC(=O)CCC(=O)O [4,6-Dioxoheptanoic acid]
remaining activity at 1.25 µM ([1]; Well no.=7261): 102%
remaining activity at 3.75 µM ([2]; Well no.=7261): 102%

COc1cc(C(C)=O)cc(-c2cc(C(C)=O)cc(OC)c2O)c1O [1,1'-(6,6'-dihydroxy-5,5'-dimethoxy-[1,1'-biphenyl]-3,3'-diyl)bis(ethan-1-one)]
remaining activity at 1.25 µM ([1]; Well no.=5981): 101%
remaining activity at 3.75 µM ([2]; Well no.=5981): 96.6%

NC(=O)C(c1ccccc1)(c1ccccc1)[C@@H]1CCN(CCc2ccc3c(c2)CCO3)C1 [Darifenacin HBr]
remaining activity at 1.25 µM ([1]; Well no.=5361): 104%
remaining activity at 3.75 µM ([2]; Well no.=5361): 97.1%

NC(N)=NCC(=O)O [2-Guanidinoacetic acid]
remaining activity at 1.25 µM ([1]; Well no.=6437): 103%
remaining activity at 3.75 µM ([2]; Well no.=6437): 105%

O=C(NCCCCN1CCN(c2cccc(Cl)c2Cl)CC1)c1ccc2c(c1)Cc1ccccc1-2 [NGB 2904 hydrochloride]
remaining activity at 1.25 µM ([1]; Well no.=5407): 97.8%
remaining activity at 3.75 µM ([2]; Well no.=5407): 101%

Nc1nc(=O)n([C@@H]2CS[C@H](CO)O2)cc1F [Emtricitabine]
remaining activity at 1.25 µM ([1]; Well no.=1733): 100%
remaining activity at 3.75 µM ([2]; Well no.=1733): 100%

CN(C)CCC=C1c2ccccc2C=Cc2ccccc21 [Cyclobenzaprine (hydrochloride)]
remaining activity at 1.25 µM ([1]; Well no.=6284): 106%
remaining activity at 3.75 µM ([2]; Well no.=6284): 105%

COc1cccc([C@@]2(O)CCCC[C@@H]2CN(C)C)c1 [Tramadol]
remaining activity at 1.25 µM ([1]; Well no.=2002): 104%
remaining activity at 3.75 µM ([2]; Well no.=2002): 104%

OC[C@H]1O[C@@H](n2cnc3c(=S)nc[nH]c32)[C@H](O)[C@@H]1O [6-_Thioinosine]
remaining activity at 1.25 µM ([1]; Well no.=7724): 99.8%
remaining activity at 3.75 µM ([2]; Well no.=7724): 96.5%

C[n+]1cc2c3c(ccc2c2ccc4cc5c(cc4c21)OCO5)OCO3 [Sanguinarine]
remaining activity at 1.25 µM ([1]; Well no.=3779): 94.3%
remaining activity at 3.75 µM ([2]; Well no.=3779): 90.1%

CC[C@H](C(=O)N1CCCC[C@H]1C(=O)O[C@H](CCc1ccc(OC)c(OC)c1)c1cccc(OCC(=O)O)c1)c1cc(OC)c(OC)c(OC)c1 [AP1867]
remaining activity at 1.25 µM ([1]; Well no.=6982): 103%
remaining activity at 3.75 µM ([2]; Well no.=6982): 100%

O=C(O)CNC(=O)C1C(=O)N(C2CCCCC2)C(=O)N(C2CCCCC2)C1=O [Daprodustat (GSK1278863)]
remaining activity at 1.25 µM ([1]; Well no.=8534): 96.6%
remaining activity at 3.75 µM ([2]; Well no.=8534): 99.9%

CCCCCCCCCCC1=C(C)C(=O)C(OC)=C(OC)C1=O [Decylubiquinone]
remaining activity at 1.25 µM ([1]; Well no.=3245): 100%
remaining activity at 3.75 µM ([2]; Well no.=3245): 99.1%

CC1=C(CC(=O)O)c2cc(F)ccc2/C1=C\c1ccc([S+](C)[O-])cc1 (stereo not shown) [Sulindac]
remaining activity at 1.25 µM ([1]; Well no.=1270): 102%
remaining activity at 1.25 µM ([1]; Well no.=1756): 98.1%
remaining activity at 3.75 µM ([2]; Well no.=1270): 105%
remaining activity at 3.75 µM ([2]; Well no.=1756): 96.7%

O=C(NCCO)c1cccc(-c2cc(Nc3ccc(OC(F)(F)F)cc3)ncn2)c1 [GNF-5]
remaining activity at 1.25 µM ([1]; Well no.=5861): 105%
remaining activity at 3.75 µM ([2]; Well no.=5861): 98.1%

O=C(CO)[C@@H](O[C@H]1O[C@H](CO)[C@@H](O)[C@H](O)[C@H]1O)[C@H](O)[C@H](O)CO [Turanose]
remaining activity at 1.25 µM ([1]; Well no.=6971): 92.9%
remaining activity at 3.75 µM ([2]; Well no.=6971): 98.6%

CC(C)CC(=O)N[C@H](C(=O)N[C@H](C(=O)N[C@@H](CC(C)C)[C@@H](O)CC(=O)N[C@@H](C)C(=O)N[C@@H](CC(C)C)[C@@H](O)CC(=O)O)C(C)C)C(C)C [Pepstatin A] (Isovaleryl-VV[Sta]A[Sta]-OH)
remaining activity at 1.25 µM ([1]; Well no.=8764): 91.3%
remaining activity at 3.75 µM ([2]; Well no.=8764): 92.8%

C=CC(=O)Nc1ccc2ncnc(Nc3cccc(Br)c3)c2c1 [PD168393]
remaining activity at 1.25 µM ([1]; Well no.=4750): 105%
remaining activity at 3.75 µM ([2]; Well no.=4750): 104%
